# Measurements taken from patent US8663616B2, “Enzymatic peracid generation for use in oral care products” (E I du Pont de Nemours and Company, priority 2010, dated 2014).
# B1: EZ-4: C277S-link1-(GK)5, SEQ ID NO: 427 (protein)
# chain: MAFFDLPLEELKKYRPERYEEKDFDEFWEETLAESEKFPLDPVFERMESHLKTVEAYDVTFSGYRGQRIKGWLLVPKLEEEKLPCVVQYIGYNGGRGFPHDWLFWPSMGYICFVMDTRGQGSGWLKGDTPDYPEGPVDPQYPGFMTRGILDPRTYYYRRVFTDAVRAVEAAASFPQVDQERIVIAGGSQGGGIALAVSALSKKAKALLCDVPFLCHFRRAVQLVDTHPYAEITNFLKTHRDKEEIVFRTLSYFDGVNFAARAKIPALFSVGLMDNISPPSTVFAAYNYYAGPKEIRIYPYNNHEGGGSFQAVEQVKFLKKLFEKGGPGSGGAGSPGSAGGPGSGKGKGKGKGK
# Experiments:
# C277S (SEQ ID NO: 424) = biological target: T1, C277S (SEQ ID NO: 424) (Thermotoga maritima, UniProt Q9WXT2, C277S); assay type: biochemical; settings: 100 mM ester, 60 mM H2O2, 40 ppm enzyme, 95 mM phosphate pH 7.2, 37° C.
# T1 construct: made in house; host or cells: E. coli
# Experimental: (§1) To test various enzymes against an ester substrate, it was convenient to run up to 4 reactions simultaneously by staggering the beginning of each individual reaction by 0.5-1 min. Each individual reaction was performed in a glass vessel (height: 76 mm; o.d.: 33 mm; i.d.: 24 mm) equipped with a magnetic stirring bar. Four reaction vessels were banded together and kept at constant temperature in a jacketed one-liter, stainless steel, tempering beaker (KGW IsoTherm, # TSS-G 1000W) with circulating water controlled by a Thermo NesLab recirculation bath (Model # RTE-7 Digital One). Buffer (6 mL, 100 mM sodium phosphate buffer, pH 7.2) was added to each reaction vessel and allowed to equilibrate to 37° C. The ester substrate of interest was added to achieve 100 mM concentration. […] To follow the production of peracetic acid, 80 μL samples from each reaction were removed at specific intervals from 1 to 15 minutes. The sample was immediately quenched in a microfuge filter tube (NanoSep 30K VWR cat #82031-354) containing a volume and concentration of phosphoric acid solution that was sufficient to stop the enzymatic reaction (by lowering the pH between 2 and 3) and to dilute the sample for convenient HPLC analyses. The acid-quenched samples were centrifuged for 5 minutes to remove any particulates.
# C277T (SEQ ID NO: 437) = biological target: T2, C277T (SEQ ID NO: 437) (Thermotoga maritima, UniProt Q9WXT2, C277T); assay type: biochemical; settings: 100 mM ester, 60 mM H2O2, 40 ppm enzyme, 95 mM phosphate pH 7.2, 37° C.
# T2 construct: made in house; host or cells: E. coli
# T2 sequence (Q9WXT2 whole entry C277T): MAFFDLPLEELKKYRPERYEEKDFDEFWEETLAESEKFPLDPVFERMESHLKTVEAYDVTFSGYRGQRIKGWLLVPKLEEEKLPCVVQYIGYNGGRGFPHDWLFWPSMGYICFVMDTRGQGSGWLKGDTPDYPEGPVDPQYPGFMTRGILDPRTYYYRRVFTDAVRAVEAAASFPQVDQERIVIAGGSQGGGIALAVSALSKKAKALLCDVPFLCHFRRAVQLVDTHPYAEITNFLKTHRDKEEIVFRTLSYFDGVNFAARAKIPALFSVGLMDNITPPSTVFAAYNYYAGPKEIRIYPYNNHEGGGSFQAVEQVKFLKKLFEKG
# Experimental: as §1
# [1] = biological target: T3, C277T/R296P (SEQ ID NO: 476) (Thermotoga maritima, UniProt Q9WXT2, C277T/R296P); assay type: biochemical; settings: 100 mM ester, 60 mM H2O2, 40 ppm enzyme, 95 mM phosphate pH 7.2, 37° C.
# T3 construct: made in house; host or cells: E. coli
# T3 sequence (Q9WXT2 whole entry C277T/R296P): as the sequence (Q9WXT2 whole entry C277T) above, with R296P counted along it
# Experimental: as §1
# [2] = biological target: T4, Wild Type (SEQ ID NO: 16) (Thermotoga maritima, UniProt Q9WXT2); assay: Maximum peracetic acid from ester substrates with wild type perhydrolase (Example 14); assay type: biochemical; settings: 100 mM ester, 60 mM H2O2, 40 ppm enzyme, 95 mM phosphate pH 7.2, 37° C.
# T4 construct: made in house; host or cells: E. coli
# T4 sequence (Q9WXT2 1-325): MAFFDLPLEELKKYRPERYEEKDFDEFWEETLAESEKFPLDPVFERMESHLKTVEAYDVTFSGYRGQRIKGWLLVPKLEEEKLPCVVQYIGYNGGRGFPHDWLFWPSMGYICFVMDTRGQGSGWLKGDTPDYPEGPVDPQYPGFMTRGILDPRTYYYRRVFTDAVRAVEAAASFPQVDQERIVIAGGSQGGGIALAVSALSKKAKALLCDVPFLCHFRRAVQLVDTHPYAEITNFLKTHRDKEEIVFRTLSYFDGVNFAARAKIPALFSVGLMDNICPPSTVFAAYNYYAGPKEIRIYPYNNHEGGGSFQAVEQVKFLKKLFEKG
# Experimental: as §1
# [3] = Two-step bleaching of coffee-tea stained bovine enamel (Example 16)
# Experimental: Bovine enamel incisors were prepared as indicated in Example 1. The stained enamel blocks were embedded in a 48 well plate to protect the dentin backside from solution exposure. A solution of 10 μM of each enzyme in 10 mM phosphate buffer, pH 7.2 was prepared and 500 μL of solution was incubated with each enamel substrate for 60 min. The enzyme solution was removed and each well was rinsed three times with an additional 500 μL of buffer. The enamel blocks were placed in a fresh well for the whitening process. A solution with a final concentration of 40 mM triacetin, 100 mM H2O2 in 50 mM phosphate pH 7.2 buffer was freshly prepared and 500 μL of solution was added to each enamel block. Over the course of 1 hr the enamel blocks were removed and a color measurement was obtained and then each was returned to the solution in the well plate. The whiteness index for each sample was monitored.
# [4] = Retention of perhydrolase on hydroxyapatite (SDS-PAGE band strength); assay type: binding; settings: relative to enzyme input = 1
# Experimental: Perhydrolase enzymes listed in Table 6 were assessed for binding to hydroxyapatite. A dispersion of hydroxyapatite nanoparticles (Aldrich 677418) was made at 0.5% solids in 10 mM phosphate buffer at pH 7.2. Enzyme stock solution was added to the hydroxyapatite dispersion to a final concentration of 10 μM and incubated for 30 min in a microcentrifuge tube with gentle agitation. Each sample was centrifuged for 5 min at 10000 rpm. The supernatant was removed and additional buffer was added. The particles were resuspended and transferred to a new tube. The process was repeated two additional times. Samples of the original input of enzyme, the supernatant removed from the particles with each wash step and the final particles were prepared for SDS-PAGE analysis by combining 60 μL of sample, 20 μL of LDS buffer and 8 μL of reducing agent (Nu-PAGE). Samples were heated at 85° C. for 10 min. 25 μL of each sample was loaded on a 4-12% BisTris gel (Invitrogen) and run at 115 volts for 1.5 h. The gel was removed and stained with a 1:1 dilution of Simply Blue stain (Invitrogen) overnight and destained for 4 h in deionized water. The gel was analyzed and detection of enzyme in each fraction was estimated based on the presence of a band. The results of the analysis are provided in Table 7 with an indication of the relative strength of each band in the gel compared to the enzyme input (input=1) to determine the strength of binding between the hydroxyapatite surface and each enzyme.
Molecule,"Maximum Peracetic Acid (PAA) (ppm), C277S (SEQ ID NO: 424) (C277S (SEQ ID NO: 424)) [ppm]","Maximum Peracetic Acid (PAA) (ppm), C277T (SEQ ID NO: 437) (C277T (SEQ ID NO: 437)) [ppm]","Maximum Peracetic Acid (PAA) (ppm), C277T/R296P (SEQ ID NO: 476) [1] [ppm]","Maximum Peracetic Acid (PAA) (ppm), Wild Type (SEQ ID NO: 16) [2] [ppm]",other results
CC(=O)OCc1ccc(C=O)o1 [5-acetoxymethyl-2-furaldehyde],1185,1125,1136,778,–
CC(=O)OCC(O)COC(C)=O [Diacetin],1013,1132,1087,1160,–
CC(=O)OCCOCCOC(C)=O [Diethylene glycol diacetate],469,653,530,424,–
CC(=O)OCCOC(C)=O [Ethylene glycol diacetate],1007,1059,1020,794,–
COCC(C)OC(C)=O (centres unmarked) [Propylene glycol methyl ether acetate],173,197,181,177,–
CC(=O)OC[C@H](OC(C)=O)[C@@H](OC(C)=O)[C@H](OC(C)=O)[C@@H](COC(C)=O)OC(C)=O [Sorbitol hexaacetate],712,705,616,381,–
CC(=O)OC[C@H]1OC=C[C@@H](OC(C)=O)[C@@H]1OC(C)=O [Tri-O-acetyl glucal],1047,1319,1034,729,–
CO[C@@H]1OC[C@@H](OC(C)=O)[C@H](OC(C)=O)[C@H]1OC(C)=O [β-methyl xyloside triacetin],3856,3635,–,–,–
B1,–,–,–,–,"Whiteness Index 0 min ([3]; two-step: 10 μM enzyme 60 min, rinsed, then 40 mM triacetin, 100 mM H2O2, pH 7.2, before step 2): −158.9; ΔWI ([3]; two-step, 0 to 60 min): 69.4; Whiteness Index 5 min ([3]; two-step, 5 min in triacetin/H2O2): −143.6; Whiteness Index 15 min ([3]; two-step, 15 min in triacetin/H2O2): −149.5; Whiteness Index 30 min ([3]; two-step, 30 min in triacetin/H2O2): −129.4; Whiteness Index 45 min ([3]; two-step, 45 min in triacetin/H2O2): −106.5; Whiteness Index 60 min ([3]; two-step, 60 min in triacetin/H2O2): −89.5; Unbound (relative band strength) ([4]; 10 μM enzyme, 0.5% hydroxyapatite, pH 7.2): 0.5; HAP Particles (relative band strength) ([4]; enzyme retained on particles after washes): 0.4; Wash1 (relative band strength) [4]: 0.05; Wash2 (relative band strength) [4]: 0.05"
